# Experiments:
# [1] = tested on: rats; experiment: Study 001–1 acute subcutaneous toxicity in rats; type: in vivo, rat
# Experimental: (§1) Toxicology. We performed toxicology studies for SNV that consisted of acute subcutaneous, intravenous and oral toxicity in rats, acute dermal toxicity in rabbits, skin sensitization using adjuvant and patch test in guinea pigs, and single and repeated (for 13 weeks) dose toxicity studies in rats. The latter was a 90-days repeated dose toxicity study, consisting of SNV once a day at three different doses to the penis and vagina of male and female rats, respectively. The compound was tested for the treatment of erectile dysfunction. The active dose (7 µg SNV) was chosen as the lowest dose for the study. The highest dosage group in the repeated dose toxicity study received 3,500 µg ([Gozes et al., 1994]). For study 001 (parts 1 through 3), the 1× dose consisted of 0.5 mg SNV dissolved in 7.1 ml vehicle (3.55 ml 10% Sefsol [glycerin monocaprylate] + 3.55 ml isopropanol) and 100µl/animal were administered; the 1000X dose consisted of 91 mg SNV dissolved in 1.3 ml vehicle (0.65 ml 10% Sefsol +0.65 ml isopropanol) and 100µl/animal were administered. For studies 002 through 004, the indicated doses of SNV (Table 1) were dissolved in 0.25 ml 10% Sefsol +0.25 ml 40% isopropanol (vehicle). The methodology for each of the toxicology studies is detailed in Table 1.
# [2] = tested on: rats; experiment: Study 001–3 acute oral toxicity in rats; type: in vivo, rat
# Experimental: as §1
# [3] = tested on: TiP-induced osteolysis on mouse calvaria; experiment: TiP-induced osteolysis, mouse calvarial model (µCT); type: in vivo
# [4] = tested on: Guinea pigs; experiment: Study 003 skin sensitization: adjuvant and patch test; type: in vivo, guinea pig; details: SNV 7 mg/animal (1000X)
# Experimental: as §1
# [5] = Rat model of transepithelial penetrability (vaginal delivery of 125I-SNV, organ radioactivity); type: in vivo; details: 125I-labelled SNV
# Text: Rat model of transepithelial penetrability. Because of the high hydrophobicity of SNV, we employed an iodination labeling protocol based on the Chloramine T method ([Markwell, 1982]) using 1 mCi Na^125I with a few modifications that included 1) the dissolution of SNV in dimethylformamide (DMF), 2) replacement of the phosphate buffer with 0.2 M HEPES (pH = 7.6), a more compatible buffer, and 3) reaction termination by the addition of sodium metabisulfite and KI. The pharmacokinetic profile of ^125I-SNV absorption and distribution was evaluated following vaginal delivery of the compound to rats. Wistar rats at the estrus phase received 50 µl (7.0 µCi/rat, 15 million CPM, 100 Ci/mM specific activity) of ^125I-SNV dissolved in 5% Sefsol, applied directly in the vagina, using a P100 micro pipettor. At the indicated time points, we anesthetized the rats with chloral hydrate and collected blood before cervical dislocation. We then harvested the uterus, liver, lungs, heart, intestine, kidneys and vagina (duplicate samples were taken from each organ). Organs were weighed and radioactivity levels were measured using a gamma counter. Each point on the chart represents at least two rats.
# 7.0 microCi/rat (15 million CPM, 100 Ci/mmole specific activity) of radioactive SNV was delivered in the vagina of rats at T0. Each point on the chart represents at least two rats. Levels of radioactivity were monitored over 250 min to assess the remaining amount of SNV in the vagina (A) versus its distribution in the indicated organs (B) as a measure of its penetrability through the vaginal epithelium. Data are Mean ± SD.
# [6] = tested on: albino female rabbits; experiment: Study 002 acute dermal toxicity in rabbits; type: in vivo, rabbit; details: single dermal application, 7 mg/site (1000X)
# Experimental: as §1
# [7] = tested on: M-CSF + RANKL treated pre-osteoclasts; experiment: Osteoclastogenesis assay, direct effect in the absence of inflammation (TRAP staining); type: cell-based, mouse; details: 10^-6 M, no inflammation, TRAP-positive multinucleated osteoclasts after 5 days, n=5, p<0.01
# Experimental: Osteoclastogenesis assay. Preosteoclasts, prepared like the BMDMs, were plated in 96-well plates (7,000 cells per well, for TRAP staining, see below) or in 6-well plates (200,000 cells per well, for RNA) in standard medium supplemented with 20 ng/ml M-CSF and 50 ng/ml RANKL (R&D Systems, Minneapolis, MN, United States). After 48 h, the medium was replaced by the conditioned medium of BMDM, supplemented with RANKL and M-CSF. Where indicated, 10^−6 M SNV or VIP were added. […], cells were stained using a TRAP kit (Sigma-Aldrich, St. Louis, MO, United States), and multinucleated (>3 nuclei) TRAP-positive cells were defined as osteoclasts. Images were acquired at an original magnification of ×4 (Evos FLC, Life Technologies, MS, United States). The number of osteoclasts and the total osteoclast area were measured using ImageJ software (National Institutes of Health, Bethesda, MD, United States).
# FIGURE 3 Direct effect of VIP and SNV on osteoclastogenesis. (A) VPAC1 and (B) VPAC2 expression in M-CSF treated bone marrow-derived macrophages (Day 0) and M-CSF + RANKL treated pre-osteoclasts (Day 2) using RT-qPCR. […] (C-E) Osteoclastogenesis in the presence of 10^-6M VIP, SNV or vehicle only (control) performed in 96-well plates; TRAP-positive multinucleated osteoclasts were evaluated after 5 days of differentiation. […]
# [8] = tested on: rats; experiment: Study 004–1 repeated dose toxicity in rats: a 13-weeks study; type: in vivo, rat
# Experimental: as §1
# The study named 004-1, was the most protracted and detailed toxicology study. We carried it out in rats as a repeated dose toxicity study on target external organs, the penis and the vagina. The structure of the study included a detailed pathological evaluation of all body organs.
# [9] = subcutaneous, 7 mg/rat (1000X, group 4)
# [10] = oral, 7 µg/rat and 7 mg/rat groups
# [11] = 7.0 µCi/rat in 5% Sefsol, vaginal delivery, Wistar rats at estrus, monitored over 250 min, gamma counter, at least two rats per point
# [12] = daily topical for 13 weeks, all doses
substance,measurement,setting,value
"Stearyl–HSDAVFTDNYTRLRKQ-Nle-AVKKYLNSILN-NH2 [SNV, Stearyl-norleucine-VIP, lipophilic VIP derivative with N-terminal stearic acid and norleucine in place of methionine at position 17]",Acute median lethal subcutaneous dose,"[1]; S.D. rats, 6 males + 6 females per group, single injection close to penile or vaginal tissue, 14 observation days, 7 mg/rat = maximal practical dose","Under the conditions of this study, the acute median lethal subcutaneous dose of SNV was found to be greater the 7 mg/rat, which is the maximal practical dose"
same,Mortality,"[1]; subcutaneous, 7 µg/rat (1×), 14 observation days",None
same,Mortality,"[1]; subcutaneous, 7 mg/rat (1000X), 14 observation days",None
same,Reactions: body weight,[1]; [9],"significant weight loss until 8th day, returning to original weight on day 12–14"
same,Reactions: diarrhea,[1]; [9],"Diarrhea in 2 males of group 4 (1000X) 5–24 after injection, lasting for 2 days"
same,Reactions: skin necrosis,"[1]; subcutaneous, affected treatment group(s) not specified",Necrosis of abdominal (male only) or penile skin on day 13–14 after injection
same,Acute median oral lethal dose,"[2]; oral by metal catheter, S.D. rats, 6 males + 6 females per group, 7 mg/rat = maximal practical dose","Under the conditions of this study, the acute median oral lethal dose of SNV was found to be greater the 7 mg/rat, which is the maximal practical dose"
same,Mortality,[2]; [10],None
same,Reactions,[2]; [10],None
same,Calvaria thickness,"[3]; 2 × 10^–8 mol SNV in fibrinogen-thrombin membrane with TiP, 5 weeks, µCT",no significant differences
same,Lowering of pit resorption volume (PRV) vs Ti,"[3]; mouse, in vivo",60%
same,Lowering of pit resorption volume as percentage of the total tissue volume (PRV/TV) vs Ti,"[3]; mouse, in vivo",60%
same,"Skin sensitization, conclusion",[4]; adjuvant and patch test,The study was designed to assess the degree of skin sensitization resulting from intradermal Freund’s complete adjuvant and patch application of SNV. The study showed that both SNV and vehicle alone have no skin sensitization properties
same,Mortality,"[4]; adjuvant and patch test, daily applications for 3 days",None
same,Skin reactions,"[4]; intradermal Freund's complete adjuvant and patch application, daily applications for 3 days, 3 males + 3 females per group",only slight erythema and edema within the application site
same,"Levels of SNV in the blood, heart, lungs, liver, gut, uterus and kidneys (radioactivity)",[5]; [11],steadily increased
same,Local levels of SNV in the vagina (radioactivity),[5]; [11],decline over time
same,Penetrability through the vaginal epithelium,"[5]; vaginal delivery in rats, over 250 min",high penetrability
same,"Dermal irritation, conclusion",[6],"Under the conditions of this study, single dermal application of the vehicle did not cause irritation. The 1000X dose transient effect was barely perceptible"
same,Mortality,[6]; N = 4,None
same,Rabbits with slight barely perceptible erythema,"[6]; N = 4, disappeared within 72 h following application",50%
same,Osteoclast differentiation (osteoclast number and total area),[7],comparable inhibitory effect
same,"Clinical signs (penile edema, erythema and staining): relation to dose","[8]; daily topical for 13 weeks, 7 µg, 0.7 mg and 3.5 mg/rat",not dose-related
same,Mortality,"[8]; daily topical for 13 weeks, 7 µg/rat (low dose)",None. Only one death took place in a male from the low dose group due to massive abdominal hemorrhage caused by a nephroblastoma
same,Mortality,"[8]; daily topical for 13 weeks, 0.7 mg/rat",None. Only one death took place in a male from the low dose group due to massive abdominal hemorrhage caused by a nephroblastoma
same,Mortality,"[8]; daily topical for 13 weeks, 3.5 mg/rat",None. Only one death took place in a male from the low dose group due to massive abdominal hemorrhage caused by a nephroblastoma
same,Pathological evaluation of all body organs (macroscopic and microscopic changes),"[8]; daily topical for 13 weeks, all dosages",No drug-related macroscopic or microscopic changes
same,Hematology and clinical chemistry parameters,[8]; [12],No dose related or sex related biologically meaningful treatment effects
same,"Serious adverse effects, conclusion",[8]; [12],did not cause any serious adverse effects at any of the doses tested
same,Treatment-related adverse effects,"[8]; daily topical on the sex organs for 13 weeks, 7 µg, 0.7 mg and 3.5 mg/rat, SPF S.D. rats, 10 males + 10 females per group",No related adverse effects were detected throughout the study
